In US9822091B2, “Method for producing ellagic acid composition” (KAO CORPORATION, priority 2013, dated 2017):

Columns and labels:
[1] = Free ellagic acid dissolved in the aqueous medium of the heat-treated solution (HPLC quantification); type: physicochemical
Method: (§1) Free ellagic acid was quantified by a gradient method using a high-performance liquid chromatograph manufactured by Hitachi, Ltd. with a column Cadenza CD-C18 (4.6 mmφ×150 mm, 3 μm) manufactured by Imtakt Corporation at a column temperature of 40° C. A 0.05 mol/L aqueous solution of acetic acid was used as a mobile phase solution A, and acetonitrile was used as a mobile phase solution B, respectively, and they were delivered at 1.0 mL/min.
(§2) The sample injection volume was 10 μL, and quantification was carried out based on an absorbance at a wavelength of 254 nm.
Solubilization ratio (%) of free ellagic acid=[(Mass of free ellagic acid dissolved in water or aqueous medium)/(Mass of free ellagic acid in material for heat treatment)]×100
The solution in the slurry supply tank was fed to a stainless-steel flow reactor having an inner volume of 100 mL (manufactured by Nitto Koatsu Co., Ltd.) at 100 mL/min, and was subjected to heat treatment at 110° C. (mean residence time: 1 minute). The pressure was adjusted to 0.3 MPa (gauge pressure) with an outlet valve. […] The cooling rate determined from the time of cooling from 110° C. to 90° C. was 7.88° C./s. A part of the heat-treated solution was sampled, and the amount of free ellagic acid dissolved in the aqueous medium was measured to determine a solubilization ratio.

[2] = Evaluation of solubility: free ellagic acid dissolved in water from the dried ellagic acid composition; type: physicochemical
Method: as §1, §2
The solubility of free ellagic acid in water in an ellagic acid composition after drying was determined by: adding the ellagic acid composition to distilled water so that the amount of solids was one in an aqueous solution or a suspension before drying; shaking the mixture at 25° C. for 5 minutes; filtering the resultant with a cellulose acetate membrane filter having a pore size of 0.2 μm; and measuring the concentration of ellagic acid dissolved therein.
Solubilization ratio (%) of free ellagic acid=[(Mass of free ellagic acid dissolved in water or aqueous medium)/(Mass of free ellagic acid in material for heat treatment)]×100 […]

## O=c1oc2c(O)c(O)cc3c(=O)oc4c(O)c(O)cc1c4c23 [Comparative Example 1, ellagic acid dihydrate]
[1]
  Solubilization ratio: 8%
[1]; heat-treated solution before drying, 25° C.
  Concentration of free ellagic acid dissolved in aqueous medium (25° C.): 6000 ng/mL
[2]; 5 min
  Solubilization ratio: 6%
[2]; composition powder after freeze or spray drying, redissolved in distilled water, shaken 5 minutes at 25° C., 0.2 μm filter
  Concentration of free ellagic acid dissolved in water (25° C.): 5000 ng/mL
